We go through one compound from patent US20240274226A1, “MOLECULAR EVALUATION METHODS” (UNIVERSITY COLLEGE DUBLIN, priority 2021, published 2024).

Molecules are shown by their SMILES. “And” between values parts separate entries of the source, which are not always exact repeats. Identical values can stand only once.

The subject of experiment [1] is phospho-Trk. As to the kind of experiment: Phospho-Trk activity by Western blotting, TrkA cells. It counts as cell-based, human. Particulars: single replicates. The method, then:
(§1) These antibodies detect phosphorylation sites that change protein activities or protein abundances. We measured pathway activities in untreated cells and cells treated with NGF (TrkA ligand) or BDNF (TrkB ligand) for 10 or 45 minutes. After normalization we calculated the fold changes in protein phosphorylation levels or abundances producing a data point for each protein.

Experiment [2] relates to phospho-Trk. Briefly: Phospho-Trk activity by Western blotting, TrkB cells. The class given is cell-based, human. To be noted: single replicates. The method, then: as §1
The subject of experiment [3] is SH-SY5Y-TrkA. Briefly: cSTAR analysis of RPPA perturbation data (STV dot product P, DPD output S), TrkA cells. It counts as cell-based, human. To be noted: ligand NGF, 45 minutes, calculated from RPPA data. An excerpt: (§2) Thus, we use this dimensionality reduced STV for estimating the network effects and biological outcomes of experimental perturbations. For each perturbation we determine a perturbation vector that connects the centroids of the point clouds that have been obtained before and after the perturbation. This vector changes the cell phenotype when it pushes the centroid of the original point cloud across the plane that separates different cell states, stabilizes a cell state when moving the centroid away from the separation plane, or has no effect when it is (nearly) parallel to the separation plane.
(§3) These outcomes can be quantified by determining the dot product (P) of the perturbation vector and the dimensionality reduced STV.
(§4) For a correct interpretation of perturbation data using the STV, we have to exclude the analytes that composed the modules of our core signaling network. Accordingly, the dimensionality of the molecular dataspace where the STV and perturbation vectors are calculated is reduced from 115 to 70, due to 45 analytes from Table S1A, related to the five proteins flagged in Table S3, being allocated to core network components, leaving the remaining 70 analytes to defined the reduced dimensionality dataspace.
(§5) Let A with the radius-vector {right arrow over (x)}A be the centroid of the point cloud Ai, corresponding to the unperturbed state 1. Let Apert with the radius-vector {right arrow over (x)}Apert be the centroid of the point cloud (Ai^pert), corresponding to the perturbed state 1. Then the perturbation vector is defined as,
(§6) The projection P of the perturbation vector {right arrow over (P)} on the STV ({right arrow over (s)}) is obtained as a dot product of these two vectors,
(§7) In the molecular dataspace, we consider the STV as a vector {right arrow over (s)} of unit length directed from a centroid of a differentiation TrkA point cloud to a centroid of a proliferation TrkB point cloud. We now define the output of the DPD module as the S value,
(§8) In this definition, the direction of the vector {right arrow over (n)}, which is orthogonal to the separation hyperplane, […]. Then, the DPD value (S) is positive for proliferation TrkB points and negative for differentiation TrkA points.
(§9) Using the STV ({right arrow over (s)}), a perturbation vector ({right arrow over (P)}) and the unit length vector ({right arrow over (n)}) orthogonal to the separation hyperplane, we can calculate how the DPD value changes following each inhibitor perturbation. The DPD values, determined for the centroids of unperturbed (A) and perturbed (Apert) states, S and Spert, respectively, are the following (see Eq. 9),
(§10) In order to reconstruct the posterior network, we used the drug perturbations described in Table 1, measuring 10 and 45 minute timepoints in TrkA and TrkB cells stimulated with NGF or BDNF, respectively.

Experiment [4] has as its system SH-SY5Y-TrkB. Briefly: cSTAR analysis of RPPA perturbation data (STV dot product P, DPD output S), TrkB cells. It counts as cell-based, human. Particulars: SH-SY5Y-TrkB, ligand BDNF, 45 minutes, calculated from RPPA data.
Description: as §2, §3
TrkB cells were treated with the p90RSK inhibitor BI-D1870. Data points were acquired corresponding to 45 min 100 ng/ml GF stimulation, and these were projected into the first 3 principal components in order to calculate the point cloud centroids. For clarity, only the centroids are shown in FIG. 7, corresponding to: TrkA 45 minute NGF, TrkB 45 minute BDNF before perturbation, and the perturbed centroid TrkB RSKi 45 minute BDNF.
as §4, §5, §6, §7, §8, §9, §10

Experiment [5] has as its system SH-SY5Y-TrkB. Briefly: Differentiation of TrkB cells, live cell images at 72 hours. Particulars: SH-SY5Y-TrkB, ligand BDNF, 72 hours. The class given is cell-based, human. The protocol: FIG. 45 is a live cell image of TrkB cells stimulated with BDNF taken at 72 hours. FIG. 46 is a live cell image of BDNF-stimulated TrkB cells treated with 0.2 μM Trametinib taken at 72 hours. FIG. 47 is a live cell image of BDNF-stimulated TrkB cells treated with 2.5 μM Gefitinib taken at 72 hours. […] FIG. 49 is an additional experiment, being a live cell image of BDNF-stimulated TrkB cells treated with a combination of 2.5 μM Gefitinib and 0.05 μM Trametinib taken at 72 hours.

The test system of experiment [6] is SH-SY5Y-TrkA. As to the kind of experiment: Differentiation of TrkA cells, live cell images at 72 hours. Particulars: SH-SY5Y-TrkA, ligand NGF, 72 hours.
Description: SH-SY5Y cells stably expressing TrkA or TrkB receptors were stimulated with 100 ng/ml NGF or BDNF, respectively. Differentiation and proliferation were assessed 72 hours after growth factor treatment.
In FIGS. 35A-F, the live cell images are accompanied by bar plots showing the percentage of differentiated cells. The percentages were obtained by examining three images for each set of conditions, and counting the total number of cells and the number of differentiated cells.
FIG. 52 is a bar plot showing the percentage of differentiated cells for different treatments, measured by counting cells in images and calculating the ratio of differentiated cells to total cells.

As to `Oc1c2ccccc2c2c3c(cccc13)N=N2` [Trk inhibitor, SP600125], the phospho-Trk in the experiment with phospho-Trk [1] (10 min ligand stimulation) is 0.8871 and 0.6065; in the experiment on phospho-Trk [1] (45 min ligand stimulation), 0.724; in the experiment on phospho-Trk [2] (10 min ligand stimulation), 3.716 and 1.408; in the experiment with phospho-Trk [2] (45 min ligand stimulation), 3.539. For the same compound, the “Change in the DPD output ΔS” value in the experiment with SH-SY5Y-TrkA [3] is −2.53 ± 0.35; in the experiment on SH-SY5Y-TrkB [4] it was −9.6 ± 0.6. In addition, the “DPD output S” value in the experiment with SH-SY5Y-TrkA [3] is reported as −4.84 ± 0.16; in the experiment with SH-SY5Y-TrkB [4], −3.84 ± 0.03. The “Experimentally measured percentage of differentiated cells” value in the experiment with SH-SY5Y-TrkB [5] is listed as 55% ± 4%; in the experiment on SH-SY5Y-TrkA [6], 64.4% ± 2.5%.
